Where two headings read alike, the source gives them in different places.
How the values were obtained:
[1] = hot plate test on mouse (central analgesic activity); assay type: in vivo
Description: The compounds object of the present invention were tested in vivo in order to evaluate the central analgesic activity.
The hot plate test was carried out on mouse according to the method described by Eddy et al. (J. Pharmacol., 98, 121, 1950). The compounds were administered by systemic route (oral and subcutaneous). The analgesic activity was expressed as 50% effective dose (ED50).
In table 3 the results obtained for some representative compounds of formula I are reported.

[2] = Jumping test on mouse (capacity to induce physical dependence); assay type: in vivo; settings: Naloxone 10 mg/kg i.p. 4 hours after last administration, 15 minutes
Description: The compounds object of the present invention were tested in vivo in order to evaluate the capacity to induce physical dependence. The Jumping test described by Sealens et al. [Committee on Problems of Drug Dependence, vol. 2, (1971), page 1310] was used.
After 4 hours from the last administration, the animals were treated with Naloxone (10 mg/kg i.p.) and the number of jumps taken by the animals during the period of 15 minutes after the administration of Naloxone was counted.
In table 4, for exemplifying purposes, the percentage of jumping animals obtained for a compound of formula I is reported.

opioid receptors = target: T1, opioid receptors (Rattus norvegicus, UniProt P33535); test: competition for binding of [^3 H]-dihydromorphine (DHM) to opioid receptors in rat-brain homogenate; set-up: species or system rat (Sprague-Dawley); settings: 1 nM ^3 H-DHM; 25° C., 30 minutes; read-out: IC50 for specific binding of ^3 H-DHM to rat-brain homogenate
T1 construct: opioid receptors in rat-brain homogenate; from tissue; host or cells: rat brain (Sprague-Dawley) without cerebellum, homogenate / crude membrane pellet
Description: (1) Evaluation of the competition for binding of [^3 H]-dihydromorphine(DHM) to opioid receptors in rat-brain homogenate
The experiments were carried out according to the method described by Simon et al. [Proc. Nat. Acad. Sci. U.S.A., 70, pp. 1947-1949, (1973)].
Sprague-Dawley rats weighing about 150 g were used.
The animals were decapitated and, after removal of cerebellum, the brains were homogenized in […] Tris-HCl buffer (pH 7.4) containing 0.32M saccharose. The homogenate was centrifugated at 1000 rpm for 10 minutes and the supranatant was centrifugated again at 20000 rpm for 20 minutes.
The obtained pellet was suspended in a homogenization buffer without saccharose up to a protein concentration of 2 mg/ml. The incubating system consisted in: 500 μl of homogenate (1 mg of proteins), 390 μl of 50 mM Tris-HCl buffer (pH 7.4), 100 μl of a solution at different concentrations of the compounds of formula I or of 10 μM Naloxone for the determination of the aspecific binding and 10 μl of ^3 H-DHM (specific activity […], 1 nM final concentration). The mixture was incubated at 25° C. for 30 minutes after the addition of the radioactive binder.
Then, the samples were filtered through Whatman GF/B filters, washed twice with 3 ml volumes of buffer and dried in oven at 70° C. Filters were put in scintillation vials with 15 ml of Filter Count (Packard) scintillation cocktail and the radioactivity was evaluated by a Packard Tricarb 4530 scintillation counter with 60% efficiency.
The activity was expressed as inhibiting concentration (IC50) 50% of the binding of ^3 H-DHM.

[3] = test system: guinea-pig isolated ileum; test: morphine-like activity on guinea-pig isolated ileum (inhibition of electrically induced contractions); assay type: cell-based; settings: inhibition of 50% of contraction, electric stimulation 0.1 Hz-0.5 msec.
Description: The experiments were carried out according to the method described by Goldstein and Schultz (Br. J. Pharmacol., 48, 655, 1975) which is based on the capacity of the molecules showing an agonist activity on opioid receptors to inhibit the contractions of smooth muscles of guinea-pig ileum induced by electric stimulation (0.1 Hz-0.5 msec.).
The pharmacological activity was expressed as the necessary concentration (mM) to inhibit 50% of contraction (IC50).

[4] = sc, subcutaneous, mouse hot plate test, read-out: Analgesic activity ED50 (C.L. 95%), s.c.
[5] = oral, mouse hot plate test, read-out: Analgesic activity ED50 (C.L. 95%), os

T1 sequence (P33535 whole entry): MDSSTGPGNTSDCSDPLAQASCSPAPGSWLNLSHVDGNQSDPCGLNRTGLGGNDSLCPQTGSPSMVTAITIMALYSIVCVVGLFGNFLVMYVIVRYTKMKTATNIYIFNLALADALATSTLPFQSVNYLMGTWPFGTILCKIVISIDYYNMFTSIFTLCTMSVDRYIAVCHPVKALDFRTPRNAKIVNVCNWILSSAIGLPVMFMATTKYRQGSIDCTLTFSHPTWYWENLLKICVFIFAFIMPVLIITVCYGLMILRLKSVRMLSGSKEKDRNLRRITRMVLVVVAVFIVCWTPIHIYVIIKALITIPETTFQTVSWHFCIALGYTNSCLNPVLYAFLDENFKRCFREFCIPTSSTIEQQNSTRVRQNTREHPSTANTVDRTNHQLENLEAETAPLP

## CN1CC[C@]23c4c5ccc(O)c4O[C@H]2[C@@H](O)C=C[C@H]3[C@H]1C5 [morphine, reference compound]
[1]; Mus musculus, po, read-out: Analgesic activity ED50 (C.L. 95%), os
  ED50: 18 mg/kg
[1]; Mus musculus, sc, read-out: Analgesic activity ED50 (C.L. 95%), s.c.
  ED50: 3.5 mg/kg
[2]; total dose 156.0 mg/kg i.p.
  Percentage of jumping animals (total dose 156.0 mg/kg i.p.): 80%

## CC[C@@H](C)N(C[C@H](O)[C@@H]1CCC(=O)N1Cc1cc(Br)no1)[C@H](C)CC [Compound 22, (1S)-1-[(5S)-1-(3-bromo-5-isoxazolylmethyl)-2-oxo-5-pyrrolidinyl]-2-[(2R,2'R)-disec.butylamino]ethanol]
Opioid receptors
  IC50: 9.4 nM
[3]; Cavia porcellus
  IC50: 4.96 nM
[1]; [4]
  ED50: 1 mg/kg

## CC[C@@H](C)N(CC(O)C1CCCC(=O)N1Cc1ccccc1Cl)[C@H](C)CC (stereo partly drawn) [Compound 43, 1-[2-[(2-chlorophenyl)methyl]-2-oxo-6-piperidinyl]-2-[(2R,2'R)-disec.butylamino]ethanol]
[3]
  IC50: 0.5 nM
[1]; subcutaneous, mouse hot plate test
  Analgesic activity ED50 (C.L. 95%), s.c.: 0.1 mg/kg

## CC[C@@H](C)N(C[C@H](O)[C@@H]1CCC(=O)N1Cc1ccccc1Cl)C(C)C [Compound 38, (1S)-1-[(5S)-1-[(2-chlorophenyl)methyl]-2-oxo-5-pyrrolidinyl]-2-[[(R)-sec.butyl]isopropylamino]ethanol]
[3]; Cavia porcellus
  IC50: 21.5 nM
[1]; [4]
  ED50: 1.1 mg/kg

## CC[C@@H](C)N(C[C@@H](O)[C@@H]1CCC(=O)N1Cc1ccccc1F)[C@H](C)CC [Compound 15, (1R)-1-[(5S)-1-[(2-fluorophenyl)methyl]-2-oxo-5-pyrrolidinyl]-2-[(2R,2'R)-disec.butylamino]ethanol]
[3]; Cavia porcellus
  IC50: 40 nM

## CC[C@@H](C)N(C[C@H](O)[C@@H]1CCC(=O)N1Cc1ccccc1Cl)[C@@H](C)CC [Compound 8, (1S)-1-[(5S)-1-[(2-chlorophenyl)methyl]-2-oxo-5-pyrrolidinyl]-2-[(2R,2'S)-disec.butylamino]ethanol]
[3]; Cavia porcellus
  IC50: 44 nM
[1]; [4]
  ED50: 1.4 mg/kg

## CC[C@@H](C)N(C[C@@H](O)[C@@H]1CCC(=O)N1Cc1ccccc1Cl)[C@@H](C)CC [Compound 7, (1R)-1-[(5S)-1-[(2-chlorophenyl)methyl]-2-oxo-5-pyrrolidinyl]-2-[(2R,2'S)-disec.butylamino]ethanol]
[3]; Cavia porcellus
  IC50: 70 nM

## CC[C@@H](C)N(C[C@H](O)[C@@H]1CCC(=O)N1Cc1ccc(Br)cc1)[C@H](C)CC [Compound 26, (1S)-1-[(5S)-1-[(4-bromophenyl)methyl]-2-oxo-5-pyrrolidinyl]-2-[(2R,2'R)-disec.butylamino]ethanol]
[3]; Cavia porcellus
  IC50: 0.04 nM
[1]; [4]
  ED50: 0.03 mg/kg

## CC[C@@H](C)N(C[C@@H](O)[C@H]1CCC(=O)N1Cc1ccccc1Cl)[C@H](C)CC [Compound 4, (1R)-1-[(5R)-1-[(2-chlorophenyl)methyl]-2-oxo-5-pyrrolidinyl]-2-[(2R,2'R)-disec.butylamino]ethanol]
[3]; Cavia porcellus
  IC50: 8.7 nM
[1]; [4]
  ED50: 3.8 mg/kg

## CC[C@H](C)N(C[C@@H](O)[C@@H]1CCC(=O)N1Cc1ccccc1Cl)[C@@H](C)CC [Compound 5, (1R)-1-[(5S)-1-[(2-chlorophenyl)methyl]-2-oxo-5-pyrrolidinyl]-2-[(2S,2'S)-disec.butylamino]ethanol]
[3]; Cavia porcellus
  IC50: 50 nM

## CC(C)N(C[C@H](O)[C@@H]1CCC(=O)N1Cc1ccccc1Cl)C(C)C [Compound 34, (1S)-1-[(5S)-1-[(2-chlorophenyl)methyl]-2-oxo-5-pyrrolidinyl]-2-diisopropylaminoethanol]
[3]; Cavia porcellus
  IC50: 44.7 nM

## CC[C@@H](C)N(C[C@H](O)[C@@H]1CCC(=O)N1Cc1ccc(Cl)c(Cl)c1)[C@H](C)CC [Compound 20, (1S)-1-[(5S)-1-[(3,4-dichlorophenyl)methyl]-2-oxo-5-pyrrolidinyl]-2-[(2R,2'R)-disec.butylamino]ethanol]
[3]; Cavia porcellus
  IC50: 0.23 nM
[1]; [4]
  ED50: 0.28 mg/kg

## O=C1CC[C@@H]([C@@H](O)CN(C2CCCC2)C2CCCC2)N1Cc1ccccc1Cl [Compound 36, (1S)-1-[(5S)-1-[(2-chlorophenyl)methyl]-2-oxo-5-pyrrolidinyl]-2-dicyclopentylaminoethanol]
[3]; Cavia porcellus
  IC50: 4.06 nM
[1]; [4]
  ED50: 4.7 mg/kg

## CC[C@@H](C)N(C[C@@H](O)[C@H]1CCC(=O)N1Cc1ccccc1Cl)[C@@H](C)CC [Compound 12, (1R)-1-[(5R)-1-[(2-chlorophenyl)methyl]-2-oxo-5-pyrrolidinyl]-2-[(2R,2'S)-disec.butylamino]ethanol]
[3]; Cavia porcellus
  IC50: 83 nM

## CC[C@@H](C)N(C[C@H](O)[C@@H]1CCC(=O)N1Cc1cccc(C(F)(F)F)c1)[C@H](C)CC [Compound 24, (1S)-1-[(5S)-2-oxo-1-[(3-trifluoromethylphenyl)methyl]-5-pyrrolidinyl]-2-[(2R,2'R)-disec.butylamino]ethanol]
[3]; Cavia porcellus
  IC50: 2.9 nM
[1]; [4]
  ED50: 0.5 mg/kg

## CC[C@@H](C)N(C[C@H](O)[C@@H]1CCC(=O)N1Cc1ccccc1Cl)[C@H](C)CC [Compound 1, (1S)-1-[(5S)-1-[(2-chlorophenyl)methyl]-2-oxo-5-pyrrolidinyl]-2-[(2R,2'R)-disec.butylamino]ethanol]
Opioid receptors
  IC50: 0.9 nM
[3]; Cavia porcellus
  IC50: 0.03 nM
[1]; [5]
  ED50: 2.6 mg/kg
[1]; [4]
  ED50: 0.011 mg/kg
[2]; total dose 3.8 mg/kg i.p.
  Percentage of jumping animals (total dose 3.8 mg/kg i.p.): 5%

## CC[C@@H](C)N(C[C@H](O)[C@@H]1CCC(=O)N1Cc1ccccc1)[C@H](C)CC [Compound 14, (1S)-1-[(5S)-2-oxo-1-(phenylmethyl)-5-pyrrolidinyl]-2-[(2R,2'R)-disec.butylamino]ethanol]
Opioid receptors
  IC50: 3.3 nM
[3]; Cavia porcellus
  IC50: 0.43 nM
[1]; [5]
  ED50: 6.5 mg/kg
[1]; [4]
  ED50: 0.04 mg/kg

## CCC(CC)N(C[C@H](O)[C@@H]1CCC(=O)N1Cc1ccccc1Cl)C(CC)CC [Compound 40, (1S)-1-[(5S)-1-[(2-chlorophenyl)methyl]-2-oxo-5-pyrrolidinyl]-2-[bis(1-ethylpropyl)amino]ethanol]
[3]; Cavia porcellus
  IC50: 60 nM

## CC[C@@H](C)N(C[C@H](O)[C@@H]1CCC(=O)N1Cc1ccccc1F)[C@H](C)CC [Compound 16, (1S)-1-[(5S)-1-[(2-fluorophenyl)methyl]-2-oxo-5-pyrrolidinyl]-2-[(2R,2'R)-disec.butylamino]ethanol]
Opioid receptors
  IC50: 2.5 nM
[3]; Cavia porcellus
  IC50: 0.29 nM
[1]; [5]
  ED50: 5.8 mg/kg
[1]; [4]
  ED50: 0.03 mg/kg

## CC[C@@H](C)N(C[C@@H](O)[C@@H]1CCC(=O)N1Cc1ccc(Cl)c(Cl)c1)[C@H](C)CC [Compound 19, (1R)-1-[(5S)-1-[(3,4-dichlorophenyl)methyl]-2-oxo-5-pyrrolidinyl]-2-[(2R,2'R)-disec.butylamino]ethanol]
[3]; Cavia porcellus
  IC50: 0.77 nM

## CC[C@@H](C)N(C[C@H](O)[C@H]1CCC(=O)N1Cc1ccccc1Cl)[C@H](C)CC [Compound 3, (1S)-1-[(5R)-1-[(2-chlorophenyl)methyl]-2-oxo-5-pyrrolidinyl]-2-[(2R,2'R)-disec.butylamino]ethanol]
[3]; Cavia porcellus
  IC50: 4.6 nM

## CC[C@@H](C)N(C[C@H](O)[C@@H]1CCC(=O)N1Cc1cccc(OC)c1)[C@H](C)CC [Compound 18, (1S)-1-[(5S)-1-[(3-methoxyphenyl)methyl]-2-oxo-5-pyrrolidinyl]-2-[(2R,2'R)-disec.butylamino]ethanol]
[3]; Cavia porcellus
  IC50: 0.28 nM
[1]; [4]
  ED50: 0.07 mg/kg

— patent US4960788A, “Pyrrolidone-2 compounds and their use for central analgesic activity” (priority 1988, dated 1990)
